Test results reported in US20120029187A1, “HALOALKYLSULFONANILIDE DERIVATIVE” (Nissan Chemical Industries, Ltd., priority 2009, published 2012).

Key:
Format in all cases: in vivo
[1] = test system: barnyardgrass; assay: Test Example 2: herbicidal effects during the vegetation period under submerged conditions; settings: treatment during the vegetation period under submerged conditions; dose 2.52 g/a
Description: (§1) Test on the Herbicidal Effects on Weeds During the Vegetation Period Under Submerged Conditions
(§2) Alluvial soil was put in 1/30000-are styrol cups and admixed with water so that it was submerged at a depth of 4 cm. In each cup, seeds of barnyardgrass, bulrush and ducksalad were sown together, and the cups were placed in a greenhouse at 25 to 30° C. to grow the plants. When the barnyardgrass, bulrush and ducksalad reached the 1- or 2-leaf stage, emulsifiable concentrates containing compounds of the present invention formulated in accordance with Formulation Example 2 were applied to the water surfaces at predetermined doses after diluted with water. Three weeks after the application, the herbicidal effects against various plants were determined on the same evaluation scale as in Test Example 1.
(§3) A: barnyardgrass, B: bulrush, C: ducksalad, D: large crabgrass, E: giant foxtail, F: wild oat, G: water foxtail, H: Italian ryegrass, I: velvetleaf, J: common ragweed, K: redroot pigweed, L: common lambsquater, M: posumbu knotweed, N: common chickweed, O: beadstraw, a: transplanted rice, b: corn, c: soybean, d: direct-seeded rice, e: wheat, f: sugar beet.
(§4) The doses (g/a) represents the amounts in g per 1 are (a) applied after adjustment of concentration adjustment.

[2] = test system: ducksalad; assay: as above; settings: treatment during the vegetation period under submerged conditions; dose 2.52 g/a
Description: as §1, §2, §3, §4

[3] = test system: bulrush; assay: as above; settings: treatment during the vegetation period under submerged conditions; dose 2.52 g/a
Description: as §1, §2, §3, §4

[4] = test system: barnyardgrass; assay: Test Example 1: herbicidal effects in preemergence treatment under submerged conditions; settings: dose 2.52 g/a
Source text: (§5) Test on the Herbicidal Effects in Preemergence Treatment on Weeds Under Submerged Conditions
(§6) Alluvial soil was put in 1/30000-are styrol cups and admixed with water so that it was submerged at a depth of 4 cm. In each cup, seeds of barnyardgrass, bulrush and ducksalad were sown together, and rice seedlings at the 2.5-leaf stage were transplanted. On the same day as the seeding, emulsifiable concentrates containing compounds of the present invention formulated in accordance with Formulation Example 2 were applied to the water surfaces at predetermined doses after diluted with water. The cups were placed in a greenhouse at 25 to 30° C. to grow the plants. Three weeks after the application, the herbicidal effects against various plants were determined on the following evaluation scale.
(§7) 5 mortality of 90% or above (nearly complete death)
(§8) 4 mortality of at least 70% and less than 90%
(§9) 3 mortality of at least 40% and less than 70%
(§10) 2 mortality of at least 20% and less than 40%
(§11) 1 mortality of at least 5% and less than 20%
(§12) 0 mortality of less than 5% (almost ineffective)
as §3, §4

[5] = test system: ducksalad; assay: as above; settings: dose 2.52 g/a
Source text: as §5, §6, §7, §8, §9, §10, §11, §12, §3, §4

[6] = test system: bulrush; assay: as above; settings: dose 2.52 g/a
Source text: as §5, §6, §7, §8, §9, §10, §11, §12, §3, §4

[7] = test system: barnyardgrass; assay: Test Example 3: herbicidal effects in soil treatment; settings: dose 3.2 g/a
Source text: (§13) Test on the Herbicidal Effects in Soil Treatment
(§14) Sterilized diluvial soil was put in plastic boxes with a length of 21 cm, a width of 13 cm and a depth of 7 cm, and seeds of barnyardgrass, large crabgrass, giant foxtail, wild oat, blackgrass, velvetleaf, common ragweed, redroot pigweed, common lambsquater, posumbu knotweed, common chickweed corn, soybean, rice, wheat and sugar beet were sown in spots and covered with an about 1.5 cm-thick soil layer. Emulsifiable concentrates containing compounds of the present invention formulated in accordance with Formulation Example 2 were uniformly applied to the soil surfaces at predetermined doses through a small sprayer after dilute with water. Three weeks after the application, the herbicidal effects against various plants were determined on the same evaluation scale as in Test Example 1.
as §3, §4

[8] = test system: water foxtail; assay: as above; settings: dose 3.2 g/a
Source text: as §13, §14, §3, §4

[9] = test system: posumbu knotweed; assay: as above; settings: dose 3.2 g/a
Source text: as §13, §14, §3, §4

[10] = test system: common ragweed; assay: as above; settings: dose 3.2 g/a
Source text: as §13, §14, §3, §4

[11] = test system: Italian ryegrass; assay: as above; settings: dose 3.2 g/a
Source text: as §13, §14, §3, §4

[12] = test system: giant foxtail; assay: as above; settings: dose 3.2 g/a
Source text: as §13, §14, §3, §4

[13] = test system: large crabgrass; assay: as above; settings: dose 3.2 g/a
Source text: as §13, §14, §3, §4

[14] = test system: common lambsquater; assay: as above; settings: dose 3.2 g/a
Source text: as §13, §14, §3, §4

[15] = test system: common chickweed; assay: as above; settings: dose 3.2 g/a
Source text: as §13, §14, §3, §4

[16] = test system: redroot pigweed; assay: as above; settings: dose 3.2 g/a
Source text: as §13, §14, §3, §4

[17] = test system: barnyardgrass; assay: Test Example 4: herbicidal effect in foliage treatment; settings: dose 3.2 g/a, three weeks after application
Source text: (§15) Test on the Herbicidal Effect in Foliage Treatment
as §14, with “chickweed,” for “chickweed”, “The boxes were placed in a greenhouse at 25 to 30° C. to grow the plants. After 14 days, emulsifiable” for “Emulsifiable”, “foliage” for “soil surfaces”, “diluted” for “dilute”
as §3, §4

[18] = test system: water foxtail; assay: as above; settings: dose 3.2 g/a, three weeks after application
Source text: as §15
as §14, with “chickweed,” for “chickweed”, “The boxes were placed in a greenhouse at 25 to 30° C. to grow the plants. After 14 days, emulsifiable” for “Emulsifiable”, “foliage” for “soil surfaces”, “diluted” for “dilute”
as §3, §4

[19] = test system: posumbu knotweed; assay: as above; settings: dose 3.2 g/a, three weeks after application
Source text: as §15
as §14, with “chickweed,” for “chickweed”, “The boxes were placed in a greenhouse at 25 to 30° C. to grow the plants. After 14 days, emulsifiable” for “Emulsifiable”, “foliage” for “soil surfaces”, “diluted” for “dilute”
as §3, §4

[20] = test system: common ragweed; assay: as above; settings: dose 3.2 g/a, three weeks after application
Source text: as §15
as §14, with “chickweed,” for “chickweed”, “The boxes were placed in a greenhouse at 25 to 30° C. to grow the plants. After 14 days, emulsifiable” for “Emulsifiable”, “foliage” for “soil surfaces”, “diluted” for “dilute”
as §3, §4

[21] = test system: Italian ryegrass; assay: as above; settings: dose 3.2 g/a, three weeks after application
Source text: as §15
as §14, with “chickweed,” for “chickweed”, “The boxes were placed in a greenhouse at 25 to 30° C. to grow the plants. After 14 days, emulsifiable” for “Emulsifiable”, “foliage” for “soil surfaces”, “diluted” for “dilute”
as §3, §4

[22] = test system: giant foxtail; assay: as above; settings: dose 3.2 g/a, three weeks after application
Source text: as §15
as §14, with “chickweed,” for “chickweed”, “The boxes were placed in a greenhouse at 25 to 30° C. to grow the plants. After 14 days, emulsifiable” for “Emulsifiable”, “foliage” for “soil surfaces”, “diluted” for “dilute”
as §3, §4

[23] = test system: large crabgrass; assay: as above; settings: dose 3.2 g/a, three weeks after application
Source text: as §15
as §14, with “chickweed,” for “chickweed”, “The boxes were placed in a greenhouse at 25 to 30° C. to grow the plants. After 14 days, emulsifiable” for “Emulsifiable”, “foliage” for “soil surfaces”, “diluted” for “dilute”
as §3, §4

[24] = test system: common lambsquater; assay: as above; settings: dose 3.2 g/a, three weeks after application
Source text: as §15
as §14, with “chickweed,” for “chickweed”, “The boxes were placed in a greenhouse at 25 to 30° C. to grow the plants. After 14 days, emulsifiable” for “Emulsifiable”, “foliage” for “soil surfaces”, “diluted” for “dilute”
as §3, §4

[25] = test system: velvetleaf; assay: as above; settings: dose 3.2 g/a, three weeks after application
Source text: as §15
as §14, with “chickweed,” for “chickweed”, “The boxes were placed in a greenhouse at 25 to 30° C. to grow the plants. After 14 days, emulsifiable” for “Emulsifiable”, “foliage” for “soil surfaces”, “diluted” for “dilute”
as §3, §4

[26] = test system: common chickweed; assay: as above; settings: dose 3.2 g/a, three weeks after application
Source text: as §15
as §14, with “chickweed,” for “chickweed”, “The boxes were placed in a greenhouse at 25 to 30° C. to grow the plants. After 14 days, emulsifiable” for “Emulsifiable”, “foliage” for “soil surfaces”, “diluted” for “dilute”
as §3, §4

[27] = test system: redroot pigweed; assay: as above; settings: dose 3.2 g/a, three weeks after application
Source text: as §15
as §14, with “chickweed,” for “chickweed”, “The boxes were placed in a greenhouse at 25 to 30° C. to grow the plants. After 14 days, emulsifiable” for “Emulsifiable”, “foliage” for “soil surfaces”, “diluted” for “dilute”
as §3, §4

[28] = test system: beadstraw; assay: as above; settings: dose 3.2 g/a, three weeks after application
Source text: as §15
as §14, with “chickweed,” for “chickweed”, “The boxes were placed in a greenhouse at 25 to 30° C. to grow the plants. After 14 days, emulsifiable” for “Emulsifiable”, “foliage” for “soil surfaces”, “diluted” for “dilute”
as §3, §4

[29] = test system: transplanted rice; assay: Test Example 1: preemergence treatment under submerged conditions, effect on crop; settings: dose 2.52 g/a
Source text: as §5, §6, §7, §8, §9, §10, §11, §12, §3, §4

Compound: CC1(C(F)(F)F)CC(=O)N(Cc2ccccc2N(C(=O)C2CC2)S(=O)(=O)C(F)(F)F)CO1 (centres unmarked) [II-48]
- A: barnyardgrass, herbicidal effect (evaluation scale 0-5) [1]: 5 (mortality of 90% or above (nearly complete death))
- C: ducksalad, herbicidal effect (evaluation scale 0-5) [2]: 5 (mortality of 90% or above (nearly complete death))
- B: bulrush, herbicidal effect (evaluation scale 0-5) [3]: 5 (mortality of 90% or above (nearly complete death))
- A: barnyardgrass, herbicidal effect (evaluation scale 0-5) [4]: 5 (mortality of 90% or above (nearly complete death))
- C: ducksalad, herbicidal effect (evaluation scale 0-5) [5]: 5 (mortality of 90% or above (nearly complete death))
- B: bulrush, herbicidal effect (evaluation scale 0-5) [6]: 5 (mortality of 90% or above (nearly complete death))
- A: barnyardgrass, herbicidal effect (evaluation scale 0-5) [7]: 5 (mortality of 90% or above (nearly complete death))
- G: water foxtail, herbicidal effect (evaluation scale 0-5) [8]: 5 (mortality of 90% or above (nearly complete death))
- M: posumbu knotweed, herbicidal effect (evaluation scale 0-5) [9]: 3 (mortality of at least 40% and less than 70%)
- J: common ragweed, herbicidal effect (evaluation scale 0-5) [10]: 4 (mortality of at least 70% and less than 90%)
- H: Italian ryegrass, herbicidal effect (evaluation scale 0-5) [11]: 0 (mortality of less than 5% (almost ineffective))
- E: giant foxtail, herbicidal effect (evaluation scale 0-5) [12]: 4 (mortality of at least 70% and less than 90%)
- D: large crabgrass, herbicidal effect (evaluation scale 0-5) [13]: 5 (mortality of 90% or above (nearly complete death))
- L: common lambsquater, herbicidal effect (evaluation scale 0-5) [14]: 0 (mortality of less than 5% (almost ineffective))
- N: common chickweed, herbicidal effect (evaluation scale 0-5) [15]: 4 (mortality of at least 70% and less than 90%)
- K: redroot pigweed, herbicidal effect (evaluation scale 0-5) [16]: 0 (mortality of less than 5% (almost ineffective))
- A: barnyardgrass, herbicidal effect [17]: 4 (mortality of at least 70% and less than 90%)
- G: water foxtail, herbicidal effect [18]: 2 (mortality of at least 20% and less than 40%)
- M: posumbu knotweed, herbicidal effect [19]: 2 (mortality of at least 20% and less than 40%)
- J: common ragweed, herbicidal effect [20]: 2 (mortality of at least 20% and less than 40%)
- H: Italian ryegrass, herbicidal effect [21]: 0 (mortality of less than 5% (almost ineffective))
- E: giant foxtail, herbicidal effect [22]: 2 (mortality of at least 20% and less than 40%)
- D: large crabgrass, herbicidal effect [23]: 1 (mortality of at least 5% and less than 20%)
- L: common lambsquater, herbicidal effect [24]: 0 (mortality of less than 5% (almost ineffective))
- I: velvetleaf, herbicidal effect [25]: 4 (mortality of at least 70% and less than 90%)
- N: common chickweed, herbicidal effect [26]: 3 (mortality of at least 40% and less than 70%)
- K: redroot pigweed, herbicidal effect [27]: 0 (mortality of less than 5% (almost ineffective))
- O: beadstraw, herbicidal effect [28]: 4 (mortality of at least 70% and less than 90%)
- a: transplanted rice, effect on crop (evaluation scale 0-5) [29]: 0 (mortality of less than 5% (almost ineffective))
